According to US6229029A, “11β-aryl substituted 14,17-ethanoestratriens, method for the production of these compounds and their use in the production of medicaments” (Schering Aktiengesellschaft, priority 1997, dated 2001):

What was measured:
[1] = test system: bone (distal femur / proximal tibia) of ovariectomized rats; test: Bone studies in ovariectomized rats: bone density by pQCT; assay type: in vivo, rat; settings: for % of Action of E2 (bone density femur) / Bone Density Femur: Table 4, distal femur; for % of Action of E2 (bone density femur) / Bone Density Femur / Bone Density / % of Action of E2 (bone density): 28 days; for Bone Density / % of Action of E2 (bone density): Table 5, proximal tibia
[2] = test system: uterus of ovariectomized rats; test: Uterus weight in ovariectomized rats of the bone studies; assay type: in vivo, rat
Method: (§1) 3-month-old female rats are ovariectomized and treated once daily with the test compound immediately after the operation for 28 days. The administration is done subcutaneously in castor oil/benzyl benzoate or arachis oil/ethanol. The animals are sacrificed on the day after the last administration, and femurs, tibiae and uteri are removed. The uteri are weighed, fixed and worked up for histological studies. The determination of the bone density is carried out ex vivo on prepared long bones with use of pQCT (Quantitative Computer Tomography). The measurements are performed at a distance of 5-7 mm from the ball of the joint on the distal femur or the proximal tibia.

[3] = molecular target: T1, human estrogen receptor (Homo sapiens, UniProt P03372); test: Transactivation assay in HeLa cells (antiestrogenic action, vit-TK-CAT reporter); assay type: cell-based; settings: in the presence of 0.1 nM estradiol, read-out: Antagonism IC50, HELA
T1 construct: expressed in transfected cells; host or cells: HeLa cells
T1 sequence (P03372 1-595): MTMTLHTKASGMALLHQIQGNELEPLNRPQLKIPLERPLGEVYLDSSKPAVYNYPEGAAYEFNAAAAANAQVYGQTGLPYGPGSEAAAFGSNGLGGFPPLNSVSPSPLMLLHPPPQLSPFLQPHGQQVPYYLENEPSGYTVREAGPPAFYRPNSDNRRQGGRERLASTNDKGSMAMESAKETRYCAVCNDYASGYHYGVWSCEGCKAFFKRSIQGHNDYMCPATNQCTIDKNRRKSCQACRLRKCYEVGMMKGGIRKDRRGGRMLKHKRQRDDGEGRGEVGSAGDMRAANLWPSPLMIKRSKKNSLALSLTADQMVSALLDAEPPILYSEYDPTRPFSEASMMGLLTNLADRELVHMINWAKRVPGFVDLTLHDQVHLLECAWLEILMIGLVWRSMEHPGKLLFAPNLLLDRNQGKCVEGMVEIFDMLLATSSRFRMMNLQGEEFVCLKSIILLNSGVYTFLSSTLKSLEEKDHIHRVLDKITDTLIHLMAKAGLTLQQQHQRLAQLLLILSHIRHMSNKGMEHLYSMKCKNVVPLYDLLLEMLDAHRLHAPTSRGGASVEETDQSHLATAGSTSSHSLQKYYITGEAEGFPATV

[4] = test system: uterus of infant rats; test: Uterus growth test on infant rats (estrogenic action); assay type: in vivo, rat; settings: for Epithelial Height % E2 / Uterus Weight % E2: 3 days, infant rats
Excerpt: The influence of the compounds according to the invention on the uterus was examined in the uterus growth test (estrogenic action) and in the anti-uterus growth test (antiestrogenic action), both performed on infant rats.
In infant animals, both uterus and vagina show one of the estrogenic activity-dependent weight increases in their treatment with an estrogenically active substance. In the uterus, under estrogenic action, moreover, it results in a proliferation and height increase of the luminal epithelium.
Immature, normal rats (body weight 40-50 g) receive the substance s.c. over 3 days (d1-d3). On day 4 (d4), the animals are sacrificed with CO2. The uteri are prepared outside and weighed. A piece of the uterus, preferably a uterine horn, is set in formaldehyde for the histological evaluation and embedded in paraffin. The stimulation of the organ weights (relative to mg/100 g of body weight) and the epithelial height are indicated in percentage stimulation in comparison to the reference compound 17β-estradiol. (Substitution dose E2 0.3 μg/animal).

[5] = test system: bone / uterus of rats; test: Dissociation of bone action/uterus action (FIG. 7); assay type: in vivo, rat; settings: bone action vs uterus epithelial height, relative to 17β-estradiol
Excerpt: There, for compounds A, B and V, their bone-protecting actions are compared to the action of estrogen on the uterus (parameter: uterus epithelial height) as a function of dosage, in each case relative to the action of 17β-estradiol.

[6] = test system: trabecular bone (proximal tibia) of ovariectomized rats; test: Bone studies in ovariectomized rats: trabecular bone surface area (TB/TV), histological, proximal tibia; assay type: in vivo, rat; settings: Table 4, proximal tibia, 28 days
Method: as §1
As an alternative, the action on the bone is determined by measuring the trabecular bone surface area of the secondary spongiosa in histological preparations of the distal femur or the proximal tibia. The result is expressed as the proportion, in percent, of the trabecular bone surface area in the measured total bone surface area ([…]). The bone density that is measured with use of QCT and the trabecular bone surface area that is determined in the histological section correlate well to one another. A comparison of the two measurement variables is therefore permissible.
About 50% of the bone density of the animals is lost by the ovariectomy. […] In Table 4 and FIG. 2, the results of this test for doses of 0.1-100 μg/animal/day are presented. The bone density was measured on the distal femur; for comparison, the trabecular bone surface area in the proximal tibia was measured. The data that are contained in Table 4 mean specifically:
TB/TV trabecular bone surface area/total bone surface area; histologically determined
For compound B according to the invention, their bone-protecting action was also determined (Table 6). For this purpose, the parameter of TB/TV was determined, which, however, with respect to the informational value for the bone-protecting activity correlates well to the parameter of BMD-qCT that is determined for compounds A and V. This can be ascertained from Table 4; both parameters were determined for compound A.

[7] = molecular target: T2, estrogen receptors (Homo sapiens, UniProt P03372); test: Transactivation assay in HeLa cells (partial estrogenic action, rPR-TK); assay type: cell-based; settings: rPR-TK reporter, read-out: Agonism HELA (rPR-TK)
T2 construct: expressed in transfected cells; host or cells: HeLa cells
Method: The partial estrogenic action was also determined by transactivation assays. HeLa cells were […] with estrogen receptors and a reporter gene, which consists of the estrogen-response element of the progesterone receptor and the CAT-gene. The test was performed as described: Savouret et al., EMBO J. 10, 1875-1883 (1991).

Compound: C[C@]12C[C@H](c3ccc(OCCCCCS(=O)(=O)Cc4ccccn4)cc3)[C@@H]3c4ccc(O)cc4CC[C@H]3[C@]13CC[C@@]2(O)CC3 [Compound A]
- % of Action of E2 (bone density femur) ([1]; 0.1 μg/animal/day s.c.): 14%
- Bone Density Femur ([1]; 0.1 μg/animal/day s.c.): 296.4 mg Ca/ccm
- % of Action of E2 (bone density femur) ([1]; 1 μg/animal/day s.c.): 31%
- Bone Density Femur ([1]; 1 μg/animal/day s.c.): 309.6 mg Ca/ccm
- % of Action of E2 (bone density femur) ([1]; 10 μg/animal/day s.c.): 60%
- Bone Density Femur ([1]; 10 μg/animal/day s.c.): 331.3 mg Ca/ccm
- % of Action of E2 (bone density femur) ([1]; 100 μg/animal/day s.c.): 50%
- Bone Density Femur ([1]; 100 μg/animal/day s.c.): 324.1 mg Ca/ccm
- Bone Density ([1]; 100 μg/animal/day s.c.): 361.8 mg Ca/ccm
- % of Action of E2 (bone density) ([1]; 500 μg/animal/day s.c.): 49%
- Bone Density ([1]; 500 μg/animal/day s.c.): 336.3 mg Ca/ccm
- % of Action of E2 (bone density) ([1]; 2000 μg/animal/day s.c.): 65%
- Bone Density ([1]; 2000 μg/animal/day s.c.): 348.8 mg Ca/ccm
- effect of dose increase on bone action (in words) ([1]; above 100 μg/animal/day, proximal tibia): can no longer be increased by increasing the dose
- protective action in comparison to 17β-estradiol ([1]; dose range between 10 and 100 μg/animal/day s.c.): 50-60%
- degradation of bone density after ovariectomy (in words) ([1]; ovariectomized rats, 0.1-100 μg/animal/day): prevented or inhibited
- dose with which an action of about 80% of 17β-estradiol on trabecular bone is achieved ([1]; proximal tibia, s.c.): 100 μg/animal/day
- potency relative to comparison compound V, bone-protecting action ([1]; proximal tibia, vs compound V): 3 factor
- stimulation of uterus weight (in words) ([2]; FIG. 3, test of Table 4, 0.1-100 μg/animal/day): stimulates the uterus weight, but at most does so marginally
- stimulation of uterus weight (in words) ([2]; FIG. 5, test of Table 5, all tested dosages 100-2000 μg/animal/day): stimulates the uterus weight only marginally in all tested dosages
- IC50 [3]: 0.4 nM
- Epithelial Height % E2 ([4]; 0.01 mg/kg s.c.): 6 % E2
- Uterus Weight % E2 ([4]; 0.01 mg/kg s.c.): 2 % E2
- Epithelial Height % E2 ([4]; 0.1 mg/kg s.c.): -16 % E2
- Uterus Weight % E2 ([4]; 0.1 mg/kg s.c.): 0 % E2
- Epithelial Height % E2 ([4]; 1 mg/kg s.c.): -8 % E2
- Uterus Weight % E2 ([4]; 1 mg/kg s.c.): -7 % E2
- Epithelial Height % E2 ([4]; 10 mg/kg s.c.): -22 % E2
- Uterus Weight % E2 ([4]; 10 mg/kg s.c.): -15 % E2
- estrogenic action in the uterus (in words) ([4]; s.c., uterus growth test): without any estrogenic action in the uterus
- dissociation of bone-protecting action from estrogen action on the uterus (in words) [5]: most dissociated
- TB/TV (Tibia) ([6]; 0.1 μg/animal/day s.c.): 17.2%
- % of Action of E2 (TB/TV tibia) ([6]; 1 μg/animal/day s.c.): 17%
- TB/TV (Tibia) ([6]; 1 μg/animal/day s.c.): 18.9%
- % of Action of E2 (TB/TV tibia) ([6]; 10 μg/animal/day s.c.): 35%
- TB/TV (Tibia) ([6]; 10 μg/animal/day s.c.): 22.5%
- % of Action of E2 (TB/TV tibia) ([6]; 100 μg/animal/day s.c.): 62%
- TB/TV (Tibia) ([6]; 100 μg/animal/day s.c.): 27.0%
- % of Action of E2 (TB/TV tibia) ([6]; cell empty for 17β-estradiol, 0.1 μg/animal/day s.c.): 4.1%
- Emax [7]: 16%
